# Assay results from US10265372B2, “Molecular composition for enhancing and rejuvenating maintenance and repair of mammalian tissues” (The Regents of the University of California, priority 2014, dated 2019).
# “Also recorded” adds a separate entry of the source.
# Assays:
# [1] = test system: muscle stem cells (satellite cells); test: Effects of OT and OTA on muscle stem (satellite) cells; assay type: cell-based, mouse
# [2] = test system: TA muscle regeneration after CTX injury; test: In vivo epistasis between TGFβ1 and oxytocin: TA muscle regeneration after CTX injury (FIG. 4A-4B); parameters: species or system mouse; details: young (3 mo) mice, CTX-injured TA, 5 days after injury; for Muscle regeneration after injury, effect of ectopic TGFβ1 alone (histology): recombinant TGFβ1 20 ng/muscle
# Procedure: Further support for the advantages of the combined administration of OT and Alk5i comes from the observation of epistasis between the TGF-beta1 and oxytocin.
# FIGS. 4A and 4B show the in vivo epistasis between TGFβ1 and Oxytocin. Young (3 mo) mouse TA muscles were injured with CTX with or without recombinant TGFβ1 (20 ng/muscle), and mice were administered 1 μg/g OT or vehicle (HBSS) by subcutaneous delivery into circulation. TGFβ1 or vehicle and OT were administered again the following day. Mice were sacrificed 5 days after injury and muscle sectioned for histological examination (with Hematoxilin and Eosin staining) in 10 um cryosections. All samples were processed and analyzed in a blinded study. […] FIG. 4B depicts the regenerative index of the three different conditions. The regenerative index was quantified by expressing the number of newly formed fibers over total nuclei in the injury/regeneration sites; *p<0.01.
# [3] = test system: muscle stem cells (satellite cells); details: cited from earlier work
# muscle regeneration [4] = test: Systemic oxytocin or oxytocin antagonist and muscle regeneration in mice; assay type: in vivo, mouse; details: OT alone
# Excerpt: OXTR agonists may be used to treat and prevent sarcopenia, improve muscle regeneration after injury and prevent muscle mass loss observed after long term immobilization (bed rest or cast), as well as low gravity (space travel). Specifically, oxytocin is more desirable than other drugs on the market or under development, since it is physiologic, has virtually no side effects and is already FDA approved to induce labor in pregnant women and in clinical trials to treat children with autism. The plasmatic level of oxytocin decreases with age in mice. […] Confirming the dependence of muscle maintenance and repair on oxytocin, mice with a knock out in oxytocin have defective muscle regeneration and premature sarcopenia (loss of muscle tissue). Oxytocin is also known to prevent osteoporosis and regulate fat distribution after menopause. Oxytocin inhibits p16 (marker and effector of senescence) in adult stem cells, thereby enabling their productive responses to maintain and repair tissues.
# muscle regeneration [5] = details: Elabd et al. 2014, cited from earlier work
# [6] = test system: rat neural precursor cells; test: Neural precursor cell proliferation in basal medium, BrdU pulse (FIG. 3C); assay type: cell-based; details: rat neural precursor cells in basal medium (DMEM/F12/N2)
# Excerpt: (§1) FIGS. 3A-3C depict dose-curve matrices of OT, Alk5i and OT+Alk5i effects on myogenic and neurogenic cell proliferation. FIGS. 3A-3C show the effect of the indicated concentrations of OT (in nM) and Alk5-inhibitor (a5i, μM) on primary myoblasts in Opti-MEM (FIG. 3A); on old satellite cells isolated from 3 DPI muscle in Opti-MEM with 5% old mouse serum (FIG. 3B); and on rat neural precursor cells in basal medium (DMEM/F12/N2) (FIG. 3C). Cells were pulsed with BrdU, and BrdU immunodetection and Hoechst staining were performed. Percent proliferating cells (myogenic and neurogenic) were quantified (manually, by ImageJ and by Molecular Devices ImageXpress Micro automated epifluorescence imager, with automated cell quantification by MetaXpress). Shown is the percent proliferation visualized as a topographic map.
# Isolation and Culture of Neural Progenitor Cells: Primary rat neural progenitor cells (NPCs) isolated from the hippocampi of Fisher 344 rats (Charles River) will be maintained in DMEM/F12 (Life Technologies) containing N2 supplement (Life Technologies) and 10 ng/mL FGF-2 (PeproTech) on laminin (Roche) and polyornithine (Sigma) coated tissue culture plates. […]
# primary myoblasts = test: Primary myoblast proliferation, BrdU pulse, OT/Alk5i dose matrix (FIG. 3A); assay type: cell-based, mouse; details: primary myoblasts in Opti-MEM (low mitogen), OT in nM, Alk5i in μM
# Excerpt: as §1
# Isolation of Muscle Stem Cells and Primary Myoblasts: Tibialis Anterior (TA) and Gastrocneimus (Gastroc) muscles will undergo enzymatic digestion with collagenase type II. Fat pads and tendons will be removed and rounds of muscle trituration and sedimentation will purify myofibers with associated muscle stem (satellite) cells. Myofibers will be incubated with collagenase type II and dispase; suspensions will be vortexed to release satellite cells from digested fibers, passed through a cell strainer and pre-plated on uncoated dishes for 20 minutes at 37° C., 5% CO2. […]
compound,measurement,setting,value
"CC[C@H](C)[C@@H]1NC(=O)[C@H](Cc2ccc(O)cc2)NC(=O)[C@@H](N)CSSC[C@@H](C(=O)N2CCC[C@H]2C(=O)N[C@@H](CC(C)C)C(=O)NCC(N)=O)NC(=O)[C@H](CC(N)=O)NC(=O)[C@H](CCC(N)=O)NC1=O [OT, oxytocin]",pERK in muscle stem cells,[1]; muscle stem cells,activates pERK
same,CDKIs in satellite cells,[1]; old satellite cells,attenuates CDKIs
same,Proliferation and myogenicity of old satellite cells,[1]; old satellite cells,enhances proliferation and myogenicity
same,OtKO satellite cell decline,[1]; satellite cells of oxytocin knock out (OtKO) mice,rescues the OtKO satellite cell decline
same,Muscle regeneration after injury in mice given ectopic TGFβ1 (histology),"[2]; TGFβ1 20 ng/muscle, OT 1 μg/g subcutaneous",rescued muscle regeneration; also recorded: rescues the regeneration of young muscle injected with TGFβ1
same,p16 (marker and effector of senescence) in adult stem cells,[3],inhibits p16
same,Muscle maintenance and repair in old mice,muscle regeneration [4],significantly enhances muscle maintenance and repair
same,Muscle regeneration in old mice,"muscle regeneration [5]; old mice, short term subcutaneous injection (systemic delivery)",able to restore muscle regeneration
"Cc1cccc(-c2n[nH]cc2-c2ccc3ncccc3n2)n1 [Alk5i, 2-(3-(6-Methylpyridin-2-yl)-1H-pyrazol-4-yl)-1,5-naphthyridine]",Expression of CDKIs,aged mice; aged mice,attenuates the expression of CDKIs
same,Myogenesis and neurogenesis,"aged mice; aged/old mice, systemic Alk5i alone, listed as ALK5 inhibitor",simultaneously rejuvenates myogenesis and neurogenesis
same,Inflammation,aged mice; delivered systemically into 2-year old mice,reduces inflammation
same,pSmads in Sox-2+ cells of SGZ,aged mice; systemically administered,down-modulating pSmads
same,"Percent proliferating cells (BrdU), NPC proliferation",[6],diminishes proliferation of NPCs
same,"Percent proliferating cells (BrdU), myoblast proliferation",primary myoblasts,bi-phasic effect on myoblast proliferation
COc1cc(OC2CCN(C(C)=O)CC2)ccc1C(=O)N1CCC(N2C(=O)OCc3ccccc32)CC1 [OTA],Myogenicity of young satellite cells,[1]; young satellite cells,inhibits myogenicity
same,Muscle regeneration potential in young mice,"muscle regeneration [5]; young mice, injection of oxytocin antagonist",prematurely ages their muscle regeneration potential
"TGFβ1: recombinant TGFβ1, given ectopically into injured muscle (R&D systems)","Muscle regeneration after injury, effect of ectopic TGFβ1 alone (histology)",[2],promotes scarring
same,"Muscle regeneration after injury, effect of ectopic TGFβ1 alone (histology)",[2]; listed as TGF-beta 1,inhibited muscle regeneration
